Assay [1] relates to histone deacetylase (HDAC). Briefly: HDAC activity assay (HDAC Fluorimetric Assay/Drug Discovery Kit). Type of assay: biochemical, human. Conditions: HDAC-containing HeLa cell nuclear fraction, 37°C for 1 hour, various concentrations, FIG. 2. The protocol: To verify whether the activity of histone deacetylase (HDAC) was inhibited by compounds composed of the synthesized SAHA derivatives and polyamides attached to each other, an HDAC Fluorimetric Assay/Drug Discovery Kit (BIOMOL international) was used in the experiment. Although details followed the instructions of the kit manufacturer, an HDAC-containing HeLa cell (human uterine cervical cancer cell line) nuclear fraction was added to an acetylation substrate and incubated at 37° C. for 1 hour in the presence of various concentrations of the synthesized compounds or trichostatin A (hereinafter referred to as TSA) used as a positive control, followed by addition of the developer included in the kit to stop the HDAC-catalyzed reaction. Then, the samples were transferred to a 96-well assay plate and measured with ARVO EX (Perkin Elmer) for emission at 460 nm from the reaction product upon excitation at 360 nm.

Assay [2] relates to HeLa (human uterine cervical cancer cell line). The assay is described as follows: Cell proliferation assay (WST-8) on HeLa cells. Type of assay: cell-based. Conditions: 72 hours, various concentrations, WST-8, FIG. 3, FIG. 4. The protocol: Next, the synthesized compounds were verified by WST-8 assay for their ability to suppress cancer cell proliferation.
Cell lines of HeLa (human uterine cervical cancer cell line), LOVO, RKO and SW480 (each of which was a human large bowel cancer cell line) were each cultured at 37° C. under 5% carbon dioxide conditions using Dulbecco's modified Eagle's medium (DMEM, Nacalai Tesque, Inc., Japan) supplemented with 10% fetal bovine serum (FBS: JRH bioscience, USA), antibiotics (50 U/ml penicillin and 50 μg/ml streptomycin) and 1 mM sodium pyruvate. Single-layered cells grown to 80-90% confluency on 10 cm cell culture dishes were washed with D-PBS(−) (Nacalai Tesque, Inc., Japan) and then released from the dishes by being treated with a phenol red-containing 2.5 g/L-Trypsine/1 mmol/L EDTA solution (Nacalai Tesque, Inc., Japan). The released cells were adjusted and maintained in fresh medium.
Each cell line seeded at 3×10^3 cells/well in a MICROTEST tissue culture plate (96 well, FALCON) was cultured at 37° C. under 5% carbon dioxide conditions for 24 hours, and then cultured in the presence of various concentrations of PI polyamide for an additional 72 hours. After completion of the culture, 10 μl of viable cell counting reagent SF (Nacalai Tesque, Inc., Japan) was added to each well and the absorbance at 450 nm was measured by ARVO EX (PerkinElmer). During the period from reagent addition until assay, incubation was continued at 37° C. in the presence of 5% CO2 until the absorbance reached about 1.2 to 2.0 in the control sample where only 50% DMSO was added to the cells.
A general note: Formazan colour is commonly taken as a measure of viable cells.

Assay [3] has as its system MDA-MB231 breast cancer cells. The assay is described as follows: Cell proliferation assay (II), trypan blue cell counts. The format is cell-based. Conditions: after culture for 72 hours, FIG. 12. As to the method:
MDA-MB231 breast cancer cells (1×10^5 cells) were cultured in 6 cm diameter dishes using RPMI-1640 medium containing fetal bovine serum at a final concentration of 10%. For culture, the medium was supplemented with or without each polyamide (SAHA+p16NU PIP or SAHA+non-targeting PIP) at the final concentration indicated below.
Starting from the initiation of culture, the following operation was repeated every 24 hours. Namely, after being observed under a microscope, the cells were harvested and counted to determine the numbers of viable cells […] and dead cells […]. As a result, proliferation of the cells and their survival rate were determined.

Regarding `CN(C)CCCNC(=O)CCNC(=O)c1cc(NC(=O)c2cc(NC(=O)c3nc(NC(=O)CCCNC(=O)c4cc(NC(=O)c5nc(NC(=O)c6nc(NC(=O)CCNC(=O)CCNC(=O)c7ccc(NC(=O)CCCCCCC(=O)NO)cc7)cn6C)cn5C)cn4C)cn3C)cn2C)cn1C` [SAHA+non-targeting PIP, SAHA-ββImPyPyγImImPyβDp], in assay [1], the anti-HDAC activity entry is given as “confirmed to have anti-HDAC activity”. In addition, the “suppression of HeLa cell proliferation” value in assay [2] is given as “not suppressed”.
Regarding `COC(=O)CCCCCCC(=O)Nc1ccc(C(=O)NCCC(=O)NCCC(=O)Nc2cn(C)c(C(=O)Nc3cc(C(=O)Nc4cc(C(=O)NCCC(=O)Nc5cn(C)c(C(=O)Nc6cc(C(=O)NCCCC(=O)Nc7cn(C)c(C(=O)Nc8cc(C(=O)NCCC(=O)Nc9cn(C)c(C(=O)Nc%10cn(C)c(C(=O)Nc%11cc(C(=O)NCCC(=O)NCCCN(C)C)n(C)c%11)n%10)n9)n(C)c8)n7)n(C)c6)n5)n(C)c4)n(C)c3)n2)cc1` [esterified SAHA+p16 PIP, 4-(8-methoxy-8-oxooctanamido)benzoyl-ββImPyPyβImPyγImPyβImIm PyβDp], the anti-HDAC activity entry is “no HDAC activity” in assay [1]; “did not inhibit HDAC activity” in assay [1] (listed as conjugate between esterified SAHA and p16 PIP). In assay [2], the “suppression of HeLa cell proliferation” value was “not suppressed”.
In the case of `O=C(CCCCCCC(=O)Nc1ccccc1)NO` [SAHA, suberoylanilide hydroxamic acid, reference compound], the “suppression of HeLa cell proliferation” value in assay [2] is given as “did not suppress”.
For the compound “SAHA-(PEG) ββImPyPyβImPyγImPyβImImPyβDp [SAHA+ether linker+p16 PIP]”, the anti-HDAC activity result in assay [1] is “confirmed to have anti-HDAC activity”.
As to `CC(/C=C/C(=O)NO)=C\[C@@H](C)C(=O)c1ccc(N(C)C)cc1` [TSA, trichostatin A, reference compound], in assay [1], the anti-HDAC activity result is given as “high activity”. Also, the “suppression of HeLa cell proliferation” value in assay [2] is on record as “proliferation inhibition”.
On to “SAHA-H2NββPyPyβPyPyPyγImImImβPyImβDp [SAHA+p16NU PIP]”, for which the “cell proliferation significantly suppressed, compared to untreated group or 1 μM SAHA+non-targeting PIP” value was 83% in assay [3] (MDA-MB231, 1 μM) and “about 60%” in assay [3] (MDA-MB231, 2 μM).

These data come from patent US20110160399A1, “HISTONE MODIFICATION INHIBITOR SPECIFIC TO TARGET GENE” (NIHON UNIVERSITY, priority 2008, published 2011).
